Source: PubChem BioAssay (NCI)
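Interpolation was linear, between the two tested concentrations surrounding the appropriate level; five concentrations were tested over 48 hours in 96-well plates. TGI is the concentration that stops growth completely.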

Columns and labels:
Assay in all cases: growth of human tumour cells (NCI), 48 h
[1] = system: NCI-H23 lung
[2] = system: HOP-18 NSCLC
[3] = system: SK-MEL-2 melanoma
[4] = system: HT29 colon
[5] = system: SNB-78 CNS
[6] = system: CCRF-CEM leukemia
[7] = system: A549 NSCLC
[8] = system: HOP-92 NSCLC
[9] = system: U251 CNS
[10] = system: A498 renal
[11] = system: RPMI-8226 leukemia
[12] = system: CAKI-1 renal
[13] = system: LOX IMVI melanoma
[14] = system: RXF 393 renal
[15] = system: OVCAR-3 ovarian
[16] = system: HCT-15 colon
[17] = system: SF-295 CNS
[18] = system: M19-MEL melanoma
[19] = system: SK-OV-3 ovarian
[20] = system: NCI-H522 lung
[21] = system: TK-10 renal
[22] = system: HL-60(TB) leukemia
[23] = system: KM20L2 colon
[24] = system: K-562 leukemia
[25] = system: DMS 273 small cell lung
[26] = system: EKVX NSCLC
[27] = system: UACC-62 melanoma
[28] = system: DMS 114 small cell lung
[29] = system: MALME-3M melanoma
[30] = system: SNB-19 CNS
[31] = system: OVCAR-8 ovarian
[32] = system: SR leukemia
[33] = system: KM12 colon
[34] = system: UO-31 renal
[35] = system: SW-620 colon
[36] = system: MOLT-4 leukemia
[37] = system: SK-MEL-28 melanoma
[38] = system: HCT-116 colon
[39] = system: NCI-H460 lung
[40] = system: M14 melanoma
[41] = system: UACC-257 melanoma
[42] = system: SF-539 CNS
[43] = system: XF 498 CNS
[44] = system: IGROV1 ovarian
[45] = system: OVCAR-5 ovarian
[46] = system: SF-268 CNS
[47] = system: DLD-1 colon
[48] = system: HOP-62 NSCLC
[49] = system: LXFL 529 NSCLC
[50] = system: 786-0 renal
[51] = system: SK-MEL-5 melanoma
[52] = system: NCI-H226 lung
[53] = system: SN12C renal
[54] = system: ACHN renal
[55] = system: OVCAR-4 ovarian
[56] = system: HCC-2998 colon
[57] = system: SNB-75 CNS
[58] = system: COLO 205 colon

Measured: TGI

CCCCCCc1cc2c(C)c(C)c(=O)oc2cc1OCCCOc1cc2oc(=O)c(C)c(C)c2cc1CCCCCC
not listed: [52] | [53] | [54] | [55] | [56] | [57] | [58]
> 100 µM: all other assays above

COC(c1ccccc1)C(c1ccccc1)N1CCOCC1 (configuration not stated)
not listed: [16] | [32]
> 100 µM: all other assays above
